Experimental data as given in patent EP0994713B1, “USE OF A 7alpha-METHYL-17alpha-ETHYNYL-ESTRANE DERIVATIVE FOR THE TREATMENT OF ATHEROSCLEROSIS” (Akzo Nobel N.V., priority 1997, dated 1998).

Assays:
Assay type in all cases: in vivo, New Zealand White rabbits
[1] = Body weight at necropsy, cholesterol fed rabbit model; details: cholesterol diet, OVX, necropsy at 20 weeks
Method: (§1) The model is considered relevant to the human atherosclerotic process, because the cellular events occurring during the development of the atherosclerotic lesions during the atherogenic diet are similar to those observed in different stages of atherosclerotic processes in coronary arteries.
(§2) An experiment was performed with 7 groups of sexually mature, virgin female New Zealand White rabbits (Harlan, Zeist, The Netherlands), age 7-9 months and weighing approximately 3 kg (number of […] per group: 13-14). During the acclimatization period the rabbits were fed a diet of standard commercial rabbit chow LKK20 (Hope Farms, Woerden, The Netherlands). Three weeks prior to the start of the experiment the animals were anaesthetized and underwent bilateral ovariectomy (OVX) or were sham operated. After three weeks, at the start of the experiment, the rabbits were randomized over the treatment groups. In all animals de-endothelialisation of a segment of the left carotid artery was applied by using the air-drying technique (Fishman, J.A. et al., "Endothelial regeneration in the rat carotid artery and the significance of endothelial denudation in the pathogenesis of myointimal thickening", Lab. Invest. 1975, 32, 339-351; and Lafont, A. et al., "Restenosis and experimental angioplasty: Intimal, medial and adventitial changes associated with constructive remodeling", Circulation Research, 1995, 76, 996-1002)
(§3) The animals were randomly allocated into 7 experimental groups using a randomized block design. The groups were fed an atherogenic diet (commercial rabbit chow (LKK20) enriched with 0.4 grams cholesterol, 3.75 grams coconut oil and 3.75 grams peanut oil per 100 grams). One group was fed the standard rabbit chow (LKK20). Food intake was restricted to 80 grams daily.
(§4) The treatments (Table I) were daily administered orally as a tablet, prepared as in Example 1. Groups 1, 2 and 3 were on a daily placebo treatment. Groups 4-5 were treated with 7α-methyl-17α-ethynyl-17β-hydroxy-estra-5(10)-en-3-one (OD-14; tibolone; 6 or 2 mg daily); group 6 with 17β-estradiol (4 mg daily). Group 7 was on treatment with 17β-estradiol decanoate (150 µg in 1 ml arachis oil injected subcutaneously once a week).
(§5) During the experiment blood samples were drawn out of the central ear artery after sedation with Hypnorm (0.1 ml i.m.) (Janssen Pharmaceutics, Beerse, Belgium) before the daily treatment, at week 4,8,12,16 and 20, to monitor the plasma cholesterol levels and to measure, at week 17, plasma estradiol levels and plasma tibolone levels. Twenty weeks after the start of the experiment animals were anaesthetized by an i.m. injection of Hypnorm (0.5 ml/kg). After blood sampling the rabbits were killed by exsanguination and the aortic arch, uterus and carotid artery removed for further analyses.
(§6) In addition to example 2 an additional experiment was performed with two lower doses of Org OD14 and a higher dose of estradiol decanoate. […] The procedures were identical to those in example 2.
(§7) Three weeks prior to the start of the experiment the animals were ovariectomized. At the start of the experiment the carotid artery was de-endothelialised using the air-drying technique. The normal rabbit chow was replaced by the atherogenic diet except for the control group which received during the experiment the normal rabbit chow.
(§8) The treatments (table II) of group 1, 2, 3 and 4 were daily administered orally as a tablet, prepared as in example 1. The doses of Org OD14 per tablet, however, were 0.6 mg and 0.15 mg respectively. Group 5 was on treatment with 17β-estradiol decanoate (300 µg in 1 ml arachis oil injected subcutaneously once a week). Twenty weeks after the start of the experiment was ended in the same manner as described in example 2.
After 20 weeks of diet and of daily treatment, necropsy was performed to determine the accumulation of cholesterol and fatty streaks in the aortic arch and the advanced lesions in the carotid artery. […]

[2] = test system: female ovariectomized rabbits; assay: Plasma cholesterol levels, cholesterol fed rabbit model; details: for Mean plasma cholesterol exposure: cholesterol diet, OVX, 20 weeks
Method: as §1
(§9) An experiment was performed with 7 groups of sexually mature, virgin female New Zealand White rabbits (Harlan, Zeist, The Netherlands), age 7-9 months and weighing approximately 3 kg (number of […] per group: 13-14). During the acclimatization period the rabbits were fed a diet of standard commercial rabbit chow LKK20 (Hope Farms, Woerden, The Netherlands). Three weeks prior to the start of the experiment the animals were anaesthetized and underwent bilateral ovariectomy (OVX) or were sham operated. After three weeks, at the start of the experiment, the rabbits were randomized over the treatment groups.
(§10) The animals were randomly allocated into 7 experimental groups using a randomized block design. […] One group was fed the standard rabbit chow (LKK20). Food intake was restricted to 80 grams daily.
as §4, with “Groups” for “The treatments (Table I) were daily administered orally as a tablet, prepared as in Example 1. Groups”
as §5, §7
(§11) Group 5 was on treatment with 17β-estradiol decanoate (300 µg in 1 ml arachis oil injected subcutaneously once a week).

[3] = test system: female ovariectomized rabbits; assay: Vessel wall cholesterol measurement in the aortic arch; details: for Cholesterol level in aortic arch: cholesterol diet, OVX, necropsy at 20 weeks
Method: as §1, §9, §10
as §4, with “Groups” for “The treatments (Table I) were daily administered orally as a tablet, prepared as in Example 1. Groups”
as §5, §7, §11
The amount of protein in the tissue was determined by the method of Lowry.

[4] = test system: female ovariectomized rabbits; assay: Fatty streaks in the aortic arch (Sudan Red, image analysis); details: for Fatty streak in aortic arch: cholesterol diet, OVX, necropsy at 20 weeks
Method: as §1, §2, §3, §4, §5, §6, §7, §8
The aortic arch was dissected free, opened longitudinally and fixed in 2% paraformaldehyde. The tissue was then stained for lipids using 0.3% (w/v) Sudan Red. Colour photographs were taken of all segments. […]

[5] = test system: female ovariectomized rabbits; assay: Overall atherosclerotic lesion formation, cholesterol fed rabbit model; details: Example 3: Org OD14 0.6 mg orally daily; estradiol decanoate 300 µg s.c. weekly
Method: as §1, §6, §7, §8
In example 3 we tested Org OD14 at two lower doses (0.6 and 0.15 mg orally once daily) and estradiol decanoate at a higher dose (300 µg s.c. once weekly). […]

[6] = Example 2, Group 4: 6 mg orally daily
[7] = Example 2, Group 5: 2 mg orally daily
[8] = Example 3: 0.15 mg orally once daily
[9] = Example 3: 0.6 mg orally once daily
[10] = Example 2: Org OD14 2 and 6 mg, E2 4 mg orally daily, E2D 150 µg s.c. weekly

## C#C[C@]1(O)CC[C@H]2[C@@H]3[C@H](C)CC4=C(CCC(=O)C4)[C@H]3CC[C@@]21C [Org OD14, 7α-methyl-17α-ethynyl-17β-hydroxy-estra-5(10)-en-3-one]
[1]; [6]
  Body weight: 2758 ± 41 grams
[1]; [7]
  Body weight: 2815 ± 50 grams
[1]; [8]
  Body weight: 2850 ± 42 grams
[1]; [9]
  Body weight: 3008 ± 58 grams
[2]; [6]
  Mean plasma cholesterol exposure: 11.2 ± 1.5 mmol/L/day
[2]; [7]
  Mean plasma cholesterol exposure: 9.0 ± 1.3 mmol/L/day
[2]; [10]
  plasma cholesterol levels (in words): strongly reduced the plasma cholesterol levels
[2]; [8]
  Mean plasma cholesterol exposure: 20.7 ± 1.5 mmol/L/day
[2]; [9]
  Mean plasma cholesterol exposure: 12.8 ± 1.2 mmol/L/day
[3]; [6]
  Cholesterol level in aortic arch: 52 ± 9 nmol/mg protein
[3]; [7]
  Cholesterol level in aortic arch: 61 ± 11 nmol/mg protein
[3]; Example 2: Org OD14 2 and 6 mg, E2 4 mg orally daily
  cholesterol accumulation in the aortic arch (in words): completely prevented cholesterol accumulation
[3]; [8]
  Cholesterol level in aortic arch: 297 ± 67 nmol/mg protein
[3]; [9]
  Cholesterol level in aortic arch: 97 ± 23 nmol/mg protein
[4]; [6]
  Fatty streak in aortic arch: 1.3 ± 0.8 % of arcus covered
[4]; [7]
  Fatty streak in aortic arch: 1.4 ± 0.7 % of arcus covered
[4]; [10]
  Fatty streak formation in the aortic arch (in words): (nearly) completely prevented the fatty streak formation
[4]; [8]
  Fatty streak in aortic arch: 23.5 ± 5.3 % of arcus covered
[4]; [9]
  Fatty streak in aortic arch: 5.9 ± 2.4 % of arcus covered
[5]
  atherosclerotic lesion formation (in words): still nearly completely prevented
